# Experiments:
# [1] = tested on: Methylated Human Albumin induced Delayed Type Hypersensitivity; test: Methylated human albumin induced delayed type hypersensitivity (footpad swelling); format: in vivo, mice (C3H); conditions: 4 days; for response vs control in vivo at 30 mg/kg / response vs control in vivo at 100 mg/kg / response vs control in vivo at 300 mg/kg: Mus musculus, 96 h
# Method: Effect on Methylated Human Albumin induced Delayed Type Hypersensitivity
# The medicament was administered orally for continuous 4 days including the immunization-day. On the 4th day from the immunization day, 25 μl of 0.1% methylated human albumin aqueous solution was subcutaneously injected to the footpad. After 24 hours, the thickness of the left and right footpad were measured, and the footpad swelling due to the delayed type hypersensitivity was represented as the difference between the thickness of the left and right footpad. The footpad swelling of the medicament-administration group was compared with that of physiological saline solution-administration group.
# [2] = tested on: Sheep Erythrocytes induced Delayed Type Hypersensitivity; test: Sheep erythrocytes induced delayed type hypersensitivity (footpad swelling); format: in vivo, mice (ddY); conditions: Table 4, oral, 4 days, 24 hours after challenge
# Method: Effect on Sheep Erythrocytes induced Delayed Type Hypersensitivity
# 40 μl of Sheep erythrocytes adjusted to the concentration of 1×10^7 /40 μl was subcutaneously injected to the right footpad of mice (ddY weighing 25-30 g) and the medicament was administered orally for continuous 4 days including the day, on which sheep erythrocytes were administered.
# On the 4th day from the administration day of sheep erythrocytes, 40 μl of sheep erythrocytes adjusted to the concentration of 5×10^8 /40 μl was subcutaneously injected to the left footpad. After 24 hours, both of the thickness of the right and left footpad were measured. Footpad swelling due to the delayed type hypersensitivity was recognized as the difference between the thickness of the left and right footpad. The footpad swelling of the medicament-administration group was compared with that of physiological saline solution-administration group (control group).
# [3] = tested on: Plaque-Forming Cells in Spleen against Sheep Erythrocytes; test: Plaque-forming cells in spleen against sheep erythrocytes in mice; format: in vivo, mice (Balb/c); conditions: oral, 4 days; for PFC, % Control: vs physiological saline
# Method: Effect on Plaque-forming Cells in Spleen against Sheep Erythrocytes in mice
# Balb/c mice of 5 weeks old were intravenously immunized with 1×10^8 sheep erythrocytes/mouse. 5 mice were used per group. Medicament was orally administered for 4 days from the day when the mice were immunized. Mice were sacrificed on the 5th day and the numbers of plaque-forming cells (PFC) in the spleen against sheep erythrocytes were determined by Fujiwara's modified method of Cunningham's method ["Method in Immunological Experiment A" edited by Japanese Society for Immunology, page 1272 (1974)].
# mice = test: Acute toxicity in mice; format: in vivo; conditions: 7th day
# Method: The medicament was suspended in 3% "Tween-80" and the suspension was administered orally or intraperitonealy at a dose shown in Table 1 to mice (ddY weighing 20-25 g).
SMILES,% Control of footpad swelling ([2]; 100 mg/kg),"Mortality (mice; intraperitoneal, 1,000 mg/kg)","Mortality (mice; oral, 5,000 mg/kg)","Footpad swelling, mean value ± standard error ([1]; Experiment 1, oral, 300 mg/kg)","Footpad swelling, mean value ± standard error ([1]; Experiment 2, oral, 30 mg/kg)","Footpad swelling, mean value ± standard error ([1]; Experiment 2, oral, 100 mg/kg)","Footpad swelling, mean value ± standard error ([1]; Experiment 2, oral, 300 mg/kg)","response vs control in vivo at 300 mg/kg ([1]; po, Experiment 1, 300 mg/kg)","response vs control in vivo at 30 mg/kg ([1]; po, Experiment 2, 30 mg/kg)","response vs control in vivo at 100 mg/kg ([1]; po, Experiment 2, 100 mg/kg)","response vs control in vivo at 300 mg/kg ([1]; po, Experiment 2, 300 mg/kg)",also measured
"CCOC(=O)Cc1ccc(NC(C)=O)cc1 [Compound 4, Ethyl 4-acetylaminophenylacetate]",93.8%,,,,,,,,,,,"Footpad swelling, mean value ± standard error ([1]; Experiment 3, oral, 30 mg/kg): 48.3 ± 2.6 × 0.01 mm; Footpad swelling, mean value ± standard error ([1]; Experiment 3, oral, 100 mg/kg): 49.4 ± 3.5 × 0.01 mm; Footpad swelling, mean value ± standard error ([1]; Experiment 3, oral, 300 mg/kg): 56.5 ± 2.9 × 0.01 mm; response vs control in vivo at 30 mg/kg ([1]; po, Experiment 3, 30 mg/kg): 75.5%; response vs control in vivo at 100 mg/kg ([1]; po, Experiment 3, 100 mg/kg): 77.2%; response vs control in vivo at 300 mg/kg ([1]; po, Experiment 3, 300 mg/kg): 88.3%; % Control of footpad swelling ([2]; 30 mg/kg): 91.5%; % Control of footpad swelling ([2]; 300 mg/kg): 68.4%"
"CCOC(=O)Cc1ccc(N)cc1 [Compound 1, Ethyl p-aminophenylacetate]",85.9%,1/5,,,,,,,,,,"PFC, mean value ± standard error ([3]; Table 3, 30 mg/kg): 89.4 ± 10.4 × 3,125/spleen; PFC, % Control ([3]; Table 3, 30 mg/kg): 135%; PFC, mean value ± standard error ([3]; Table 3, 100 mg/kg): 60.6 ± 8.6 × 3,125/spleen; PFC, % Control ([3]; Table 3, 100 mg/kg): 91%; PFC, mean value ± standard error ([3]; Table 3, 300 mg/kg): 82.0 ± 5.2 × 3,125/spleen; PFC, % Control ([3]; Table 3, 300 mg/kg): 123%; Mortality (mice; oral, 3,000 mg/kg): 0/5; % Control of footpad swelling ([2]; 30 mg/kg): 79.8%; % Control of footpad swelling ([2]; 300 mg/kg): 77.9%"
"CC(=O)Nc1ccc(CC(=O)O)cc1 [Compound 10, 4-Acetylaminophenylacetate]",85.7%,0/5,0/5,44.5 ± 1.6 × 0.01 mm,46.1 ± 1.7 × 0.01 mm,41.8 ± 2.5 × 0.01 mm,42.3 ± 1.8 × 0.01 mm,70.3%,78.9%,71.6%,72.4%,"PFC, mean value ± standard error ([3]; Table 2, 30 mg/kg): 116.4 ± 8.64 × 2,500/spleen; PFC, % Control ([3]; Table 2, 30 mg/kg): 181%; PFC, mean value ± standard error ([3]; Table 2, 100 mg/kg): 107.2 ± 10.5 × 2,500/spleen; PFC, % Control ([3]; Table 2, 100 mg/kg): 167%; PFC, mean value ± standard error ([3]; Table 2, 300 mg/kg): 82.2 ± 7.0 × 2,500/spleen; PFC, % Control ([3]; Table 2, 300 mg/kg): 128%; % Control of footpad swelling ([2]; 30 mg/kg): 77.0%; % Control of footpad swelling ([2]; 300 mg/kg): 71.6%"
"Cn1cnc([N+](=O)[O-])c1Sc1ncnc2nc[nH]c12 [Azathioprine, reference compound]",49.0%,,,,,41.4 ± 1.5 × 0.01 mm,,,,,,"response vs control in vivo at 100 mg/kg ([1]; Experiment 2, oral, 100 mg/kg): 70.9%"
CC(C)C(=O)Nc1ccc(CC(=O)O)cc1 [Compound 13],,1/5,0/5,58.5 ± 2.4 × 0.01 mm,,,,92.4%,,,,"Footpad swelling, mean value ± standard error ([1]; Experiment 1, oral, 30 mg/kg): 57.2 ± 1.9 × 0.01 mm; Footpad swelling, mean value ± standard error ([1]; Experiment 1, oral, 100 mg/kg): 58.2 ± 1.9 × 0.01 mm; response vs control in vivo at 30 mg/kg ([1]; po, Experiment 1, 30 mg/kg): 90.4%; response vs control in vivo at 100 mg/kg ([1]; po, Experiment 1, 100 mg/kg): 91.9%"
"CC(=O)Nc1ccc(C(C)(C)C(=O)O)cc1 [Compound 11, 2-(4-Acetylaminophenyl)-2-methylpropionic acid]",,0/5,0/5,,54.5 ± 1.7 × 0.01 mm,55.4 ± 1.8 × 0.01 mm,51.3 ± 2.3 × 0.01 mm,,93.3%,94.9%,87.8%,
"CCCC(=O)Nc1ccc(CC(=O)O)cc1 [Compound 14, 4-n-Butyrylaminophenylacetic acid]",,0/5,,,50.9 ± 2.0 × 0.01 mm,51.8 ± 1.4 × 0.01 mm,56.7 ± 1.5 × 0.01 mm,,87.2%,88.7%,97.1%,
"CC(=O)Nc1ccc(C(C)C(=O)O)cc1 (stereo not drawn) [Compound 12, 2-(4-Acetylaminophenyl)propionic acid]",,0/5,0/5,,54.5 ± 1.7 × 0.01 mm,52.1 ± 1.5 × 0.01 mm,52.4 ± 1.9 × 0.01 mm,,93.2%,89.2%,89.7%,
"CCOC(=O)C(C)c1ccc(NC(C)=O)cc1 (stereo not drawn) [Compound 9, Ethyl 2-(4-acetylaminophenyl)propionate]",,0/5,,,51.4 ± 1.8 × 0.01 mm,55.3 ± 2.0 × 0.01 mm,56.0 ± 2.0 × 0.01 mm,,88%,94.7%,95.9%,"Mortality (mice; oral, 1,500 mg/kg): 0/5"
"Cc1ccc(C(=O)Nc2ccc(CC(=O)O)cc2)cc1 [Compound 15, 4-(4-Methylbenzoylamino)phenylacetic acid]",,5/5,5/5,57.4 ± 1.5 × 0.01 mm,,,,90.7%,,,,"Mortality (mice; intraperitoneal, 300 mg/kg): 0/5; Mortality (mice; oral, 1,000 mg/kg): 0/5; Footpad swelling, mean value ± standard error ([1]; Experiment 1, oral, 30 mg/kg): 54.2 ± 1.7 × 0.01 mm; Footpad swelling, mean value ± standard error ([1]; Experiment 1, oral, 100 mg/kg): 56.7 ± 1.8 × 0.01 mm; response vs control in vivo at 30 mg/kg ([1]; po, Experiment 1, 30 mg/kg): 85.6%; response vs control in vivo at 100 mg/kg ([1]; po, Experiment 1, 100 mg/kg): 89.6%"
"CCOC(=O)Cc1ccc(NC(=O)C(C)C)cc1 [Compound 6, Ethyl 4-(isobutyrylamino)phenylacetate]",,0/5,1/5,56.8 ± 2.2 × 0.01 mm,,,,89.7%,,,,"Footpad swelling, mean value ± standard error ([1]; Experiment 1, oral, 30 mg/kg): 59.0 ± 1.8 × 0.01 mm; Footpad swelling, mean value ± standard error ([1]; Experiment 1, oral, 100 mg/kg): 55.6 ± 1.2 × 0.01 mm; response vs control in vivo at 30 mg/kg ([1]; po, Experiment 1, 30 mg/kg): 93.2%; response vs control in vivo at 100 mg/kg ([1]; po, Experiment 1, 100 mg/kg): 87.8%"
